# Numbered stars: 1 amine (or outer) side, 2 acyl side, 3 side chain; on linkers, the order of the positions; unused ones are H or OH. Bridge positions count the residues as written; N and C are the ends. Square brackets hold non-standard residues; d marks the D form. Peptide text beside a SMILES is read from it. Hyp = O=C(O)[C@@H]1C[C@@H](O)CN1; tBuAla = CC(C)(C)C[C@H](N)C(=O)O; Suc = O=C(CCC(=O)[*:2])[*:1]; NMeA = CN[C@@H](C)C(=O)O; X1 = O=C(CCC[*:2])[*:1]; Dap = NC[C@H](N)C(=O)O; Mpa = O=C(O)CCS
# Experiments:
# Oxytocin receptor = molecular target: T1, Oxytocin receptor (Homo sapiens, UniProt P30559); experiment: Agonist activity at human OTR expressed in CHO cells assessed as calcium mobilization measured after 30 mins by Fluo-4-AM dye based FLIPR assay; type: functional, cell-based
# T1 sequence (P30559 whole entry): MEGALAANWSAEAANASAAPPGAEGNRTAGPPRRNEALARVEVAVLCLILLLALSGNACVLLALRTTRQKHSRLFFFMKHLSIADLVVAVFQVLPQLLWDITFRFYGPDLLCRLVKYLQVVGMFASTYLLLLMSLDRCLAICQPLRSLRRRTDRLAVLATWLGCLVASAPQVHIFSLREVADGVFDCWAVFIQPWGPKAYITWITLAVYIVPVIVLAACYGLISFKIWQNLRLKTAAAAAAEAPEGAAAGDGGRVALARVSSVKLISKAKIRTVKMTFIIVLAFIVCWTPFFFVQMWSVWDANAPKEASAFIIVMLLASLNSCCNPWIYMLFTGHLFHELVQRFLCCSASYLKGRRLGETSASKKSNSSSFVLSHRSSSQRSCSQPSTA
# Vasopressin V1a receptor = Vasopressin V1a receptor (Homo sapiens, UniProt P37288); experiment: Agonist activity at human V1a receptor expressed in CHO cells assessed as calcium mobilization measured after 30 mins by Fluo-4-AM dye based FLIPR assay; type: cell-based
# Homo sapiens [1] = species on record: Homo sapiens; experiment: Selectivity ratio of EC50 for human V1a receptor to EC50 for human OTR
# Vasopressin V1b receptor = molecular target: T2, Vasopressin V1b receptor (Homo sapiens, UniProt P47901); experiment: Agonist activity at human V1b receptor expressed in CHO cells assessed as calcium mobilization measured after 30 mins by Fluo-4-AM dye based FLIPR assay; type: cell-based
# T2 sequence (P47901 whole entry): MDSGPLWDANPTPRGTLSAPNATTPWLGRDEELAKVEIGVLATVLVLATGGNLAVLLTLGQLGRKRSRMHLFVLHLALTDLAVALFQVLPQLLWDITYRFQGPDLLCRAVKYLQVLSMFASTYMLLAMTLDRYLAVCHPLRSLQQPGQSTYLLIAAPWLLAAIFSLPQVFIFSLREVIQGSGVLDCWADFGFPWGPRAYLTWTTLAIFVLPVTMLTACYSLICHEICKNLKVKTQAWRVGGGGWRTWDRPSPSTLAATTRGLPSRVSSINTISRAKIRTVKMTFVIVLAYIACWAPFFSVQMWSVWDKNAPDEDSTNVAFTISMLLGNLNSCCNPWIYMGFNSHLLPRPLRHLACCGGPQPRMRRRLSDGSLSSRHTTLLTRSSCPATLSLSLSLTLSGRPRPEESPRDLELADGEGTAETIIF
# Homo sapiens [2] = species on record: Homo sapiens; experiment: Selectivity ratio of EC50 for human V1b receptor to EC50 for human OTR
# Vasopressin V1a receptor, sequence (P37288 whole entry): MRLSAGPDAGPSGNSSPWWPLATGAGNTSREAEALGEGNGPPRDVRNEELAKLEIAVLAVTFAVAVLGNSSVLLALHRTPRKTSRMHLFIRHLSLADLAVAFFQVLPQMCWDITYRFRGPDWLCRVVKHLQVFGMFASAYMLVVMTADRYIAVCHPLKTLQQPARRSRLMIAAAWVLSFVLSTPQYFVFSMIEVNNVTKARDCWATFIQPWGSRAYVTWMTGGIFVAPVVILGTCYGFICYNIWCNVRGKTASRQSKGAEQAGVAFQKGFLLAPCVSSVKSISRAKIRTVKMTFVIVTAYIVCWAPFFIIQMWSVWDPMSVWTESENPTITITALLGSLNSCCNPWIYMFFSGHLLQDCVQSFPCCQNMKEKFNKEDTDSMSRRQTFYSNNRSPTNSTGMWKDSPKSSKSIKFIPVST
SMILES,EC50 (Oxytocin receptor) [nM],EC50 (Vasopressin V1a receptor) [nM],Ratio EC50 (Homo sapiens [1]),EC50 (Vasopressin V1b receptor) [nM],Ratio EC50 (Homo sapiens [2])
CC[C@H](C)[C@@H]1NC(=O)[C@H](Cc2ccc(O)cc2)NC(=O)CCCSC[C@@H](C(=O)N2CCC[C@H]2C(=O)N[C@@H](CC(C)(C)C)C(=O)NCC(N)=O)NC(=O)[C@H](CC(N)=O)NC(=O)[C@H](CCC(N)=O)NC1=O (YIQNCP[tBuAla]G-NH2; linker N-5 via X1),0.0065,> 100,> 10000,> 100,> 10000
CC[C@H](C)[C@@H]1NC(=O)[C@H](Cc2ccc(O)cc2)NC(=O)CCSSC[C@@H](C(=O)N2CCC[C@H]2C(=O)N[C@@H](CC(C)C)C(=O)NCC(N)=O)NC(=O)[C@H](C)NC(=O)[C@H](CCC(N)=O)NC1=O ([Mpa]YIQACPLG-NH2; disulfide 1-6),17,> 100,> 5,> 100,> 5
CC[C@H](C)[C@@H]1NC(=O)[C@H](Cc2ccc(O)cc2)NC(=O)CCSSC[C@@H](C(=O)N[C@@H](CC(C)C)C(=O)N[C@@H](CC(C)C)C(=O)NCC(N)=O)NC(=O)[C@H](CC(N)=O)NC(=O)[C@H](CCC(N)=O)NC1=O ([Mpa]YIQNCLLG-NH2; disulfide 1-6),3.4,> 100,> 10,> 100,> 10
CC[C@H](C)[C@@H]1NC(=O)[C@H](Cc2ccc(O)cc2)NC(=O)CCSSC[C@@H](C(=O)N2CCC[C@H]2C(=O)N[C@@H](CC(C)C)C(=O)N(C)CC(N)=O)NC(=O)[C@H](CC(N)=O)NC(=O)[C@H](CCC(N)=O)NC1=O,0.12,> 100,> 100,> 100,> 100
CC[C@H](C)[C@@H]1NC(=O)[C@H](CC(C)C)NC(=O)CCSSC[C@@H](C(=O)N2CCC[C@H]2C(=O)N[C@@H](CC(C)C)C(=O)NCC(N)=O)NC(=O)[C@H](CC(N)=O)NC(=O)[C@H](CCC(N)=O)NC1=O ([Mpa]LIQNCPLG-NH2; disulfide 1-6),3.6,> 100,> 10,> 100,> 10
CC[C@H](C)[C@@H]1NC(=O)[C@H](Cc2ccc(O)cc2)NC(=O)CCC(=O)NC[C@@H](C(=O)N2C[C@H](O)C[C@H]2C(=O)N[C@@H](CC(C)C)C(=O)NCC(N)=O)NC(=O)[C@H](CC(N)=O)NC(=O)[C@H](CCC(N)=O)NC1=O (YIQN[Dap][Hyp]LG-NH2; linker N-5 via Suc),0.013,> 100,> 1000,> 100,> 1000
CC(C)C[C@H](NC(=O)[C@@H]1CCCN1C(=O)[C@@H]1CSSCCC(=O)N[C@@H](Cc2ccc(O)cc2)C(=O)N[C@@H](CO)C(=O)N[C@@H](CCC(N)=O)C(=O)N[C@@H](CC(N)=O)C(=O)N1)C(=O)NCC(N)=O ([Mpa]YSQNCPLG-NH2; disulfide 1-6),40,> 100,> 2,> 100,> 2
CC[C@H](C)[C@@H]1NC(=O)[C@H](Cc2ccc(O)cc2)NC(=O)CCSSC[C@@H](C(=O)N2CCC[C@H]2C(=O)N[C@@H](CCCNC(=N)N)C(=O)NCC(N)=O)NC(=O)[C@H](CC(N)=O)NC(=O)[C@H](CCC(N)=O)NC1=O ([Mpa]YIQNCPRG-NH2; disulfide 1-6),0.03,0.12,4,0.034,1.1
CC[C@H](C)[C@@H]1NC(=O)[C@H](Cc2ccc(O)cc2)NC(=O)CCSSC[C@@H](C(=O)N(C)[C@@H](C)C(=O)N[C@@H](CC(C)C)C(=O)NCC(N)=O)NC(=O)[C@H](CC(N)=O)NC(=O)[C@H](CCC(N)=O)NC1=O ([Mpa]YIQNC[NMeA]LG-NH2; disulfide 1-6),0.11,> 100,> 100,> 100,> 100
CC[C@H](C)[C@@H]1NC(=O)[C@H](Cc2ccccc2)NC(=O)CCSSC[C@@H](C(=O)N2CCC[C@H]2C(=O)N[C@@H](CC(C)C)C(=O)NCC(N)=O)NC(=O)[C@H](CC(N)=O)NC(=O)[C@H](CCC(N)=O)NC1=O ([Mpa]FIQNCPLG-NH2; disulfide 1-6),0.19,> 100,> 100,> 100,> 100

# Second part, the compound after the results:
EC50 (Oxytocin receptor) [nM],EC50 (Vasopressin V1a receptor) [nM],Ratio EC50 (Homo sapiens [1]),EC50 (Vasopressin V1b receptor) [nM],Ratio EC50 (Homo sapiens [2]),SMILES
9.5,> 100,> 10,> 100,> 10,CC[C@H](C)[C@@H]1NC(=O)[C@H](Cc2ccc(O)cc2)NC(=O)CCSSC[C@@H](C(=O)N2CCC[C@H]2C(=O)N[C@@H](CC(C)C)C(=O)N[C@@H](CCC(=O)O)C(N)=O)NC(=O)[C@H](CC(N)=O)NC(=O)[C@H](CCC(N)=O)NC1=O ([Mpa]YIQNCPLE-NH2; disulfide 1-6)
0.056,> 100,> 1000,0.65,12,CC[C@H](C)[C@@H]1NC(=O)[C@H](Cc2ccc(O)cc2)NC(=O)CCSSC[C@@H](C(=O)N2CCC[C@H]2C(=O)N[C@@H](CO)C(=O)NCC(N)=O)NC(=O)[C@H](CC(N)=O)NC(=O)[C@H](CCC(N)=O)NC1=O ([Mpa]YIQNCPSG-NH2; disulfide 1-6)
0.021,4.2,200,0.17,8.1,CC[C@H](C)[C@@H]1NC(=O)[C@H](Cc2ccc(O)cc2)NC(=O)CCSSC[C@@H](C(=O)N2CCC[C@H]2C(=O)N[C@@H](C)C(=O)NCC(N)=O)NC(=O)[C@H](CC(N)=O)NC(=O)[C@H](CCC(N)=O)NC1=O ([Mpa]YIQNCPAG-NH2; disulfide 1-6)
0.12,> 100,> 100,> 100,> 100,CC[C@H](C)[C@@H]1NC(=O)[C@H](Cc2ccc(O)cc2)NC(=O)CCSSC[C@@H](C(=O)N[C@@H](Cc2ccccc2)C(=O)N[C@@H](CC(C)C)C(=O)NCC(N)=O)NC(=O)[C@H](CC(N)=O)NC(=O)[C@H](CCC(N)=O)NC1=O ([Mpa]YIQNCFLG-NH2; disulfide 1-6)
0.0075,70,9300,7.3,970,CC[C@H](C)[C@@H]1NC(=O)[C@H](Cc2ccc(O)cc2)NC(=O)CCSSC[C@@H](C(=O)N2CCC[C@H]2C(=O)N[C@@H](CC(C)C)C(=O)NNC(N)=O)NC(=O)[C@H](CC(N)=O)NC(=O)[C@H](CCC(N)=O)NC1=O
0.0067,45,6700,6.5,970,CC[C@H](C)[C@@H]1NC(=O)[C@H](Cc2ccc(O)cc2)NC(=O)CCCSC[C@@H](C(=O)N2CCC[C@H]2C(=O)N[C@@H](CC(C)C)C(=O)NCC(N)=O)NC(=O)[C@H](CC(N)=O)NC(=O)[C@H](CCC(N)=O)NC1=O (YIQNCPLG-NH2; linker N-5 via X1)
0.014,5.1,360,1.3,93,CC[C@H](C)[C@@H]1NC(=O)[C@H](Cc2ccc(O)cc2)NC(=O)CCSSC[C@@H](C(=O)N2CCC[C@H]2C(=O)N[C@H](C(=O)NCC(N)=O)C(C)C)NC(=O)[C@H](CC(N)=O)NC(=O)[C@H](CCC(N)=O)NC1=O ([Mpa]YIQNCPVG-NH2; disulfide 1-6)
0.01,> 100,> 1000,1.4,140,CC[C@H](C)[C@@H]1NC(=O)[C@H](Cc2ccc(O)cc2)NC(=O)CCSSC[C@@H](C(=O)N2CCC[C@H]2C(=O)N[C@@H](CC2CCCCC2)C(=O)NCC(N)=O)NC(=O)[C@H](CC(N)=O)NC(=O)[C@H](CCC(N)=O)NC1=O
1.5,> 100,> 10,> 100,> 10,CC[C@H](C)[C@@H]1NC(=O)[C@H](Cc2ccc(O)cc2)NC(=O)CCSSC[C@@H](C(=O)N[C@@H](CCCNC(=N)N)C(=O)N[C@@H](CC(C)C)C(=O)NCC(N)=O)NC(=O)[C@H](CC(N)=O)NC(=O)[C@H](CCC(N)=O)NC1=O ([Mpa]YIQNCRLG-NH2; disulfide 1-6)
0.78,> 100,> 100,23,29,CC[C@H](C)[C@@H]1NC(=O)[C@H](Cc2ccc(O)cc2)NC(=O)CCSSC[C@@H](C(=O)N2CCC[C@H]2C(=O)N[C@@H](CC(C)C)C(=O)NCC(N)=O)NC(=O)[C@H](CC(N)=O)NC(=O)[C@H](CC(C)C)NC1=O ([Mpa]YILNCPLG-NH2; disulfide 1-6)
0.054,> 100,> 1000,2.4,44,CC[C@H](C)[C@@H]1NC(=O)[C@H](Cc2ccc(O)cc2)NC(=O)CCSSC[C@@H](C(=O)N2CCC[C@H]2C(=O)N[C@@H](Cc2ccccc2)C(=O)NCC(N)=O)NC(=O)[C@H](CC(N)=O)NC(=O)[C@H](CCC(N)=O)NC1=O ([Mpa]YIQNCPFG-NH2; disulfide 1-6)
